Laboratory results reported in ChEMBL document CHEMBL1140120, “Discovery of biphenyl piperazines as novel and long acting muscarinic acetylcholine receptor antagonists” (J Med Chem, 2008).
In brackets after ≈: the same amount, converted by molar mass. Activity calls are given as the source filed them. No cut-off for these calls is given here.

Key:
[1] = molecular target: Muscarinic acetylcholine receptors; M2 & M3 (Homo sapiens) (UniProt P20309+P08172); assay: Selectivity for human cloned muscarinic M3 receptor over human cloned muscarinic M2 receptor
Chain of Muscarinic acetylcholine receptors; M2 & M3 (Homo sapiens) (P20309 whole entry, looked up, one chain of several): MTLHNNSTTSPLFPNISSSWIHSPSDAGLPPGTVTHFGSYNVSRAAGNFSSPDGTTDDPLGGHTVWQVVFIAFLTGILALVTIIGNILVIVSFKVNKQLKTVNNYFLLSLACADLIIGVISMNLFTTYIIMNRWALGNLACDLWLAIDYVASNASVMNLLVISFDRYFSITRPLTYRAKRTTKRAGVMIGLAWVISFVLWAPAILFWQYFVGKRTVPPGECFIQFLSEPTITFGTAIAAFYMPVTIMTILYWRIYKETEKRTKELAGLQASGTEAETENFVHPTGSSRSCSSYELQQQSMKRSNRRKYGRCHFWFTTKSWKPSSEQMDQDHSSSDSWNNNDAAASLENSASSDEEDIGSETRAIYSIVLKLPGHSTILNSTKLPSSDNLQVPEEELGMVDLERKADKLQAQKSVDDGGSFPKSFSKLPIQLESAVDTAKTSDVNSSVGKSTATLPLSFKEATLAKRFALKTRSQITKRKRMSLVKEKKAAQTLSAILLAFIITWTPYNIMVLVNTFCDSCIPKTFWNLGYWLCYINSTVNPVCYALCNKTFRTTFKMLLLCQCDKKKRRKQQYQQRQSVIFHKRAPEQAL

[2] = test system: Mus musculus; assay: Inhibition of methacholine-induced bronchoconstriction in intranasally single dosed conscious BALB/c mouse assessed by measuring enhanced pause at 5 ug after 15 mins by barometric plethysmography relative to control; format: functional
[3] = test system: Mus musculus; assay: Inhibition of methacholine-induced bronchoconstriction in intranasally single dosed conscious BALB/c mouse assessed by measuring enhanced pause at 5 ug after 5 hrs by barometric plethysmography relative to control; format: functional
[4] = molecular target: T1, Muscarinic acetylcholine receptor M1 (Homo sapiens, UniProt P11229); assay: Antagonist activity at cloned muscarinic M1 receptor expressed in CHO cells assessed as acetylcholine-induced change in cytosolic calcium concentration by FLIPR assay; format: functional, cell-based; conditions: read-out: pA2 (converted)
T1 sequence (P11229 whole entry): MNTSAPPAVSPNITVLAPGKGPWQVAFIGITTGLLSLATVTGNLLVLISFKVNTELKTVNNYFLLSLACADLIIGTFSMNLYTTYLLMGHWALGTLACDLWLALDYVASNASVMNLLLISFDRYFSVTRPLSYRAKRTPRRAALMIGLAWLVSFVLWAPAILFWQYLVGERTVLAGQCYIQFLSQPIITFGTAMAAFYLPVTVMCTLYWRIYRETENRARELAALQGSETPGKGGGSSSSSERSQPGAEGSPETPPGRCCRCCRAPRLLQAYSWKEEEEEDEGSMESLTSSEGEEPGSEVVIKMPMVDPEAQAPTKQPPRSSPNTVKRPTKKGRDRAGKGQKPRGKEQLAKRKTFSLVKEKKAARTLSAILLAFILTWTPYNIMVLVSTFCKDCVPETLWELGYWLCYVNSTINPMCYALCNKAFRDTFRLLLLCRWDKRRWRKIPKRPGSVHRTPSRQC

[5] = molecular target: T2, Muscarinic acetylcholine receptor M2 (Homo sapiens, UniProt P08172); assay: Antagonist activity at cloned muscarinic M2 receptor-Gqi5 chimeric protein expressed in CHO cells assessed as acetylcholine-induced change in cytosolic calcium concentration by FLIPR assay; format: functional, cell-based; conditions: read-out: pA2 (converted)
T2 sequence (P08172 whole entry): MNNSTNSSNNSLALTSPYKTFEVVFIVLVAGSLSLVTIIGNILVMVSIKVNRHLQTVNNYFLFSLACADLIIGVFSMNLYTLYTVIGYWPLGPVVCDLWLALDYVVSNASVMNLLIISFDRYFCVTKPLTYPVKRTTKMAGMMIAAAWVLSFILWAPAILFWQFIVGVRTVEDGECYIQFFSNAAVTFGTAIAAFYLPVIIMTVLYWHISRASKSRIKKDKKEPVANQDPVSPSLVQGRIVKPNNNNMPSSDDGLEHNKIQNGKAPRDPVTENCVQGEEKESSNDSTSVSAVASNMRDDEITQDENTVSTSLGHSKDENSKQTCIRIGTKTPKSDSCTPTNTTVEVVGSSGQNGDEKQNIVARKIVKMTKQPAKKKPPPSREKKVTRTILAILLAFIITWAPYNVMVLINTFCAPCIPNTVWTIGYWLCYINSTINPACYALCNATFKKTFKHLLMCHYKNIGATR

[6] = test system: Mus musculus; assay: Inhibition of methacholine-induced bronchoconstriction in intranasally single dosed conscious BALB/c mouse assessed by measuring enhanced pause at 5 ug after 24 hrs by barometric plethysmography relative to control; format: functional
[7] = molecular target: T3, Muscarinic acetylcholine receptor M3 (Homo sapiens, UniProt P20309); assay: Antagonist activity at cloned muscarinic M3 receptor expressed in CHO cells assessed as acetylcholine-induced change in cytosolic calcium concentration by FLIPR assay; format: functional, cell-based; conditions: read-out: pA2 (converted)
Target sequence in this assay (P20309 whole entry): as the sequence (P20309 whole entry, looked up, one chain of several) above

[8] = molecular target: T2, Muscarinic acetylcholine receptor M2; assay: Inhibition of human cloned muscarinic M2 receptor-Gqi5 chimeric protein expressed in CHO cells by FLIPR assay; format: cell-based
[9] = molecular target: Muscarinic acetylcholine receptor M1 and M3 (Homo sapiens) (UniProt P20309+P11229); assay: Selectivity for human cloned muscarinic M3 receptor over human cloned muscarinic M1 receptor
Chain of Muscarinic acetylcholine receptor M1 and M3 (Homo sapiens) (P20309 whole entry, looked up, one chain of several): as the sequence (P20309 whole entry, looked up, one chain of several) above

[10] = molecular target: T3, Muscarinic acetylcholine receptor M3; assay: Inhibition of human cloned muscarinic M3 receptor expressed in CHO cells by FLIPR assay; format: cell-based
Target sequence in this assay (P20309 whole entry): as the sequence (P20309 whole entry, looked up, one chain of several) above

[11] = molecular target: T1, Muscarinic acetylcholine receptor M1; assay: Inhibition of human cloned muscarinic M1 expressed in CHO cells by FLIPR assay; format: cell-based
[12] = Inhibition of serotonin receptor at 10 uM
[13] = Inhibition of alpha adrenergic receptor at 10 uM
[14] = molecular target: T3, Muscarinic acetylcholine receptor M3; assay: Displacement of [3H]N-methyl Scopolamine from human cloned muscarinic M3 receptor expressed in CHO cells by scintillation proximity assay; format: cell-based
Target sequence in this assay (P20309 whole entry): as the sequence (P20309 whole entry, looked up, one chain of several) above

[15] = molecular target: T4, Cytochrome P450 1A2 (Homo sapiens, UniProt P05177); assay: Inhibition of CYP1A2; format: ADME
T4 sequence (P05177 whole entry): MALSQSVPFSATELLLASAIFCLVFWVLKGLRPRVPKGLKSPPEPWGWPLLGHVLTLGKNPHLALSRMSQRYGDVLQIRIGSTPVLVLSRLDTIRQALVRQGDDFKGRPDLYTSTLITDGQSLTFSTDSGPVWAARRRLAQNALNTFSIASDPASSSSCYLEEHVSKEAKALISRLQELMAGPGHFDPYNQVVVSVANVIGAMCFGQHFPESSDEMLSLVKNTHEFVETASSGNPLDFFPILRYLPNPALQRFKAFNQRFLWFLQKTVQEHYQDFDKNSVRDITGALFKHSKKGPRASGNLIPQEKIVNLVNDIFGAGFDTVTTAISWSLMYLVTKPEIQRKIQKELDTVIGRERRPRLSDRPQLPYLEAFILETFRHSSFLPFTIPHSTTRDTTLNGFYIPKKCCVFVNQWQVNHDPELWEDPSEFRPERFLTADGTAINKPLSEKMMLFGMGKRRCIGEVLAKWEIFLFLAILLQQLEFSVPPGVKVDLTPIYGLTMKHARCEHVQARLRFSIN

[16] = molecular target: T3, Muscarinic acetylcholine receptor M3; conditions: CHO
Target sequence in this assay (P20309 whole entry, looked up): as the sequence (P20309 whole entry, looked up, one chain of several) above
Description: Antagonist activity at cloned muscarinic M3 receptor expressed in CHO cells assessed as acetylcholine-induced change in cytosolic calcium concentration pretreated for 30 mins by FLIPR assay

[17] = test system: Mus musculus; assay: Inhibition of methacholine-induced bronchoconstriction in intranasally single dosed conscious BALB/c mouse assessed by measuring enhanced pause at 5 ug after 72 hrs by barometric plethysmography relative to control; format: functional
[18] = molecular target: Cytochrome P450 3A4 (Homo sapiens, UniProt P08684); assay: Inhibition of CYP3A4; format: ADME
Chain of Cytochrome P450 3A4 (P08684 whole entry): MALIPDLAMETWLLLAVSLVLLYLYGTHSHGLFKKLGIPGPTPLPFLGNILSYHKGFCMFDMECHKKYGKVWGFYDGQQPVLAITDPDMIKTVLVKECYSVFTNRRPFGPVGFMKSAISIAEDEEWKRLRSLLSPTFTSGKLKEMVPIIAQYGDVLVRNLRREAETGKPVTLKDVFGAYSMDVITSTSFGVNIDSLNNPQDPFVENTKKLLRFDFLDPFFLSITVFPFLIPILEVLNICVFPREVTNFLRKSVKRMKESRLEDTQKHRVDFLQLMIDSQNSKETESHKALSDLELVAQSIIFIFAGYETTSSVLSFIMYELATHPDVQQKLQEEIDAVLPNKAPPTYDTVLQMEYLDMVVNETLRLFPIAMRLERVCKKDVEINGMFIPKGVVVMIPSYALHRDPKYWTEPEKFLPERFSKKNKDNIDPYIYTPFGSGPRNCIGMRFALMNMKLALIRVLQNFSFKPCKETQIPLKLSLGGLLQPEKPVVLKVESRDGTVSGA

[19] = molecular target: Cytochrome P450 2D6 (Homo sapiens, UniProt P10635); assay: Inhibition of CYP2D6; format: ADME
Chain of Cytochrome P450 2D6 (P10635 whole entry): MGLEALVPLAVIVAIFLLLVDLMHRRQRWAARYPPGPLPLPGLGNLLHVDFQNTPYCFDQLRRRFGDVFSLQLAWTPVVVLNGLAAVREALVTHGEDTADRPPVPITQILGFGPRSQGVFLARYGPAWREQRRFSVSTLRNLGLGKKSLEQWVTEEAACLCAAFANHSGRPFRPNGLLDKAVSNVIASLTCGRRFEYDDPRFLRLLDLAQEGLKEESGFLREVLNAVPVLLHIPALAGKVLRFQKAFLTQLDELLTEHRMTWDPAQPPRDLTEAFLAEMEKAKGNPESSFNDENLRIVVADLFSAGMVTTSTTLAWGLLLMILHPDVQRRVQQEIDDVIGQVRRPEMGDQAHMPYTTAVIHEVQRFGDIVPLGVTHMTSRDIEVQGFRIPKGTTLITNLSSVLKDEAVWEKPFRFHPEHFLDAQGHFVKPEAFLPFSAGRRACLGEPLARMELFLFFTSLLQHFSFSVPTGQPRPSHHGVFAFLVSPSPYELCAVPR

[20] = Inhibition of opioid receptor at 10 uM
[21] = test system: Mus musculus; assay: Inhibition of methacholine-induced bronchoconstriction in intranasally single dosed conscious BALB/c mouse assessed by measuring enhanced pause at 5 ug after 48 hrs by barometric plethysmography relative to control; format: functional
[22] = Permeability across artificial phospholipid membrane; format: ADME; conditions: not told; read-out: permeability
[23] = molecular target: Voltage-gated inwardly rectifying potassium channel KCNH2 (Homo sapiens, UniProt Q12809); assay: Inhibition of human ERG
Chain of Voltage-gated inwardly rectifying potassium channel KCNH2 (Q12809 whole entry): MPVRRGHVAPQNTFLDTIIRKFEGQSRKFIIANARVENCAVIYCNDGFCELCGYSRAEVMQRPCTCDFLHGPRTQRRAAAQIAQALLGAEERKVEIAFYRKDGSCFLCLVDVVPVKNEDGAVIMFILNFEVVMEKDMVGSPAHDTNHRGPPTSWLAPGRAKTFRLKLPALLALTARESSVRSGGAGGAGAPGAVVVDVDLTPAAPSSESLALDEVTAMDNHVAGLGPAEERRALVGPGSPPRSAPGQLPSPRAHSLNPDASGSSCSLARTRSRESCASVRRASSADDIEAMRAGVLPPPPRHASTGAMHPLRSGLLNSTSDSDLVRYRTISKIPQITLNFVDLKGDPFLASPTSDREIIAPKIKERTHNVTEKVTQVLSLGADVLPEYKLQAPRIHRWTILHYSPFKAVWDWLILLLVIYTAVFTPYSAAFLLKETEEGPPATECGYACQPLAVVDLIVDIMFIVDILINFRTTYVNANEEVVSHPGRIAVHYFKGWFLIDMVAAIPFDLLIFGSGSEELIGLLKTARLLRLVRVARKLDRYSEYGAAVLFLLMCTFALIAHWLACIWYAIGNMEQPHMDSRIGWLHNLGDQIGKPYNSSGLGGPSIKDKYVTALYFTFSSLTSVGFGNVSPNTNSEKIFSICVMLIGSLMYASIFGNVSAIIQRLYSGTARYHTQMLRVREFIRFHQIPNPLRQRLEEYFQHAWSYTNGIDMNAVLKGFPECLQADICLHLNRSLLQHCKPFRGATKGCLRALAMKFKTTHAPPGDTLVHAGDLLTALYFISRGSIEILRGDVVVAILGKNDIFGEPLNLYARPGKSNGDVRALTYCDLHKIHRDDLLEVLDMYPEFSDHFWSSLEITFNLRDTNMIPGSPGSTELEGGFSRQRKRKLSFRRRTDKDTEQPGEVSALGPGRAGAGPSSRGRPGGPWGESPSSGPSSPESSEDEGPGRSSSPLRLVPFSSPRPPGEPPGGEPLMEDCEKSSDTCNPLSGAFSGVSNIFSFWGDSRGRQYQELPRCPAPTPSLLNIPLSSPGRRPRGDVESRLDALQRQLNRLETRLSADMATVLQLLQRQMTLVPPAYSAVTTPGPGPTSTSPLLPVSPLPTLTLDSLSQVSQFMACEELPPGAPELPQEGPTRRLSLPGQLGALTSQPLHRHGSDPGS

[24] = molecular target: Cytochrome P450 2C9 (Homo sapiens, UniProt P11712); assay: Inhibition of CYP2C9; format: ADME
Chain of Cytochrome P450 2C9 (P11712 whole entry): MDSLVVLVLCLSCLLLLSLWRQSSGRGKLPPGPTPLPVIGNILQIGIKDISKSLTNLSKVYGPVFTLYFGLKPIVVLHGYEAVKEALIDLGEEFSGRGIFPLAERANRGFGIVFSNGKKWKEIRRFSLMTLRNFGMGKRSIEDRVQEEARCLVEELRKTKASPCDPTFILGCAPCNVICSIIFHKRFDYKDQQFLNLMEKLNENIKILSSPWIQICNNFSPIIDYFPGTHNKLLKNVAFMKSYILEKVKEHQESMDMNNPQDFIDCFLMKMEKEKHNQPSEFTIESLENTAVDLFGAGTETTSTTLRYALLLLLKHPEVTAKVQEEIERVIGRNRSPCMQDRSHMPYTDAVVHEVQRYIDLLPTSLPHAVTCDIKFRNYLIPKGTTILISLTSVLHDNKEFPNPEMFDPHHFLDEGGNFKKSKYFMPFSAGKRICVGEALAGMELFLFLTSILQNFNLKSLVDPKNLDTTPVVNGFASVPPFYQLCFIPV

[25] = molecular target: Cytochrome P450 2C19 (Homo sapiens, UniProt P33261); assay: Inhibition of CYP2C19; format: ADME
Chain of Cytochrome P450 2C19 (P33261 whole entry): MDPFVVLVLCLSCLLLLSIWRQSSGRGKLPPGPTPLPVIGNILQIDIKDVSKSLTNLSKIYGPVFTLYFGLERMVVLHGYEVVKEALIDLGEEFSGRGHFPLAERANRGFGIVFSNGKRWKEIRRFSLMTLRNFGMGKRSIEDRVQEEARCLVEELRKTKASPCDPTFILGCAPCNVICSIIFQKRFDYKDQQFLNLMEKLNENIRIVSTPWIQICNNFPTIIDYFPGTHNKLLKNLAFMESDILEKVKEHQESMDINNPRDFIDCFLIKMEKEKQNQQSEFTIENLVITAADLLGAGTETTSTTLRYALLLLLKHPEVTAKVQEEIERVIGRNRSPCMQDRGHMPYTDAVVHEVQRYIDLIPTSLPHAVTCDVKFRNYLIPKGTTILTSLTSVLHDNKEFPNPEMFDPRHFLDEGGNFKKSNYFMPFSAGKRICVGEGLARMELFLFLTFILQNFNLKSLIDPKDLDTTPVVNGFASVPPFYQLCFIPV

[26] = Aqueous solubility of the compound; format: physicochemical; conditions: buffer

For `C[C@H]1CN(Cc2cccc(-c3cc(CNC(=O)c4cccc(CN5CC[N+](C)(C)CC5)c4)ccc3F)c2)CCN1.O=C([O-])C(F)(F)F`, the Ratio [1] was 80, the “inhibition (INH)” value [2] was 95% and the “inhibition (INH)” value [3] was 85%. The Kb [4] was 2 nM, the Kb [5] was 12.6 nM and the Activity [6] was “inactive”.
With `CCC(=O)c1cccc(C(=O)NCc2ccc(F)c(-c3cccc(CN4CCN[C@@H](C)C4)c3)c2)c1` the Activity [2] was “Active”, the “inhibition (INH)” value [3] was 20% and the Kb [4] was 1 nM. It also gave a Kb [5] of 25.1 nM and a Kb [7] of 0.0501 nM.
For `O=C(NCc1cccc(-c2cccc(CN3CCNCC3)c2)c1)c1ccc2c(c1)OCO2`, the IC50 [8] was greater than 3160 nM, the Ratio [1] was 100 and the Ratio [9] was 5. For the same compound, the IC50 [10] was 31.6 nM and the IC50 [11] was 158 nM.
`C[C@H]1CN(Cc2cccc(-c3cc(CNC(=O)c4cccc(C#N)c4)ccc3F)c2)CCN1` gave a Kb [4] of 7.94 nM, a Kb [5] of 316 nM and a Kb [7] of 0.251 nM.
For `C[C@H]1CN(Cc2cccc(-c3cc(CNC(=O)c4cccc(CC5CCNCC5)c4)ccc3F)c2)CCN1`, the inhibition [12] was 70%, the inhibition [13] was 70% and the Ki [14] was 0.0316 nM. The Ratio [1] was 500, the IC50 [15] was greater than 10000 nM and the “inhibition (INH)” value [2] was 96%. The pKb [16] was 10.5, the “inhibition (INH)” value [17] was 25% and the “inhibition (INH)” value [3] was 94%. The IC50 [18] was greater than 10000 nM, the IC50 [19] was greater than 10000 nM and the inhibition [20] was 70%. The “inhibition (INH)” value [21] was 25%, the Papp [22] was less than 0.3 ×10⁻⁶ cm/s and the Kb [4] was 2.51 nM. It also gave a Ratio [9] of 20, an IC50 [23] of 10000 nM and a Kb [5] of 5.01 nM. The IC50 [24] was greater than 10000 nM, the Kb [7] was 0.01 nM and the IC50 [25] was greater than 10000 nM. The “inhibition (INH)” value [6] was 40% and the solubility [26] was 200 µM (≈ 103 µg/mL).
For `CC(=O)c1cccc(C(=O)NCc2ccc(F)c(-c3cccc(CN4CCN[C@@H](C)C4)c3)c2)c1`, the Ratio [1] was 2000, the Activity [2] was “Active” and the “inhibition (INH)” value [3] was 45%. For the same compound, the Kb [4] was 2.51 nM, the Ratio [9] was 50 and the Kb [5] was 100 nM. It also gave a Kb [7] of 0.0501 nM.
For `C[C@H]1CN(Cc2cccc(-c3cc(CNC(=O)c4cccc(CN5CCNCC5)c4)ccc3F)c2)CCN1`, the Ratio [1] was 400, the Kb [4] was 1 nM and the Ratio [9] was 6. For the same compound, the Kb [5] was 63.1 nM and the Kb [7] was 0.158 nM.
